Results as given in patent publication US20230119539A1, “TRACELESS LINKERS AND PROTEIN-CONJUGATES THEREOF” (Regeneron Pharmaceuticals, Inc., priority 2019, published 2023).

T1: GR (Homo sapiens, UniProt P04150)
T1 construct: host or cells: HEK293 (HEK293/GRLuc; HEK293/GRLuc/MSR1 additionally transduced with human MSR1)
T1 sequence (P04150 524-758 limits assumed): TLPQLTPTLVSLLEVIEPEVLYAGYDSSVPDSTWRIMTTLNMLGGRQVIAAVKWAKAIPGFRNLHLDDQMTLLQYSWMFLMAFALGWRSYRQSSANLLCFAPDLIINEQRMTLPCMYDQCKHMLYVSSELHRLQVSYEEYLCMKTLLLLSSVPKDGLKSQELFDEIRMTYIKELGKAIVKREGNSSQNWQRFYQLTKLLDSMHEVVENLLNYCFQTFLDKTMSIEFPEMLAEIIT

T2: human macrophage scavenger receptor 1 (MSR1) (human, UniProt P21757 1-451)
T2 sequence (looked up): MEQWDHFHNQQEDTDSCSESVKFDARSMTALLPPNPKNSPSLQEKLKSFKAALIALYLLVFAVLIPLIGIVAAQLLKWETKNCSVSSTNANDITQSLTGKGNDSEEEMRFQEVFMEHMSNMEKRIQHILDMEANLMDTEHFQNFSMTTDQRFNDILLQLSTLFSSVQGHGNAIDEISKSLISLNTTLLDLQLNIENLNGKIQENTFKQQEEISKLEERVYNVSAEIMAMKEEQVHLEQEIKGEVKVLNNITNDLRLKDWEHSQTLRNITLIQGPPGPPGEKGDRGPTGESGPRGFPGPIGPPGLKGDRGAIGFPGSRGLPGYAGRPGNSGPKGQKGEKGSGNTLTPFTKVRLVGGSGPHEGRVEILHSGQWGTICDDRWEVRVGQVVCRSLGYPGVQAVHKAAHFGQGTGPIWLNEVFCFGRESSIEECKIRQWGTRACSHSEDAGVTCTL

B1: H1H21234N-N297Q-L1-PIII-1 (antibody, V domains shown)
VH: QVQLQESGPGLVKPSETLSLTCTVTGGSISRNYWSWIRQPPGKGLEWIGYIYYSGSIDYNPSLKSRVTISVDTSKNQFSLKLSSMTAADTAVYYCARDRWNWKYGMDVWGQGTTVIVSS
VL: EIVLTQSPGTLSLSPGERATLSCRASQTVRNNYLAWYHQKPGQAPRLLIYGASSRATGIPDRFSGSGSGTDFTLTISRLEPEDFTVYYCHQYGNSPWTFGQGTKMEIKR
modifications: heavy-chain constant region (not part of this entry): N297Q (EU); linker-payload L1-PIII-1 (DIBAC-suc-PEG4-vcPAB-PIII-1, payload 6,11-2F-budesonide III) clicked onto azido-PEG3-amine on glutamines; DAR 4
B2: H1H21234N-N297Q-L3-PIII-1 (antibody, V domains shown)
VH: B1 VH
VL: B1 VL
modifications: heavy-chain constant region (not part of this entry): N297Q (EU); linker-payload L3-PIII-1 (DIBAC-suc-PEG4-GGF-PIII-1) clicked onto azido-PEG3-amine on glutamines; DAR 4

Assays:
GR [1] = biological target: T1, GR; assay: GR luciferase reporter assay in HEK293/GRLuc cells; format: cell-based; settings: for EC50: 48 hours
Method: (§1) Activity of anti-MSR1 ncADCs were tested using an MSR1 ADC steroid responsive luciferase reporter assay. To generate the assay cell line, HEK293 cells were co-transfected with the pBind-GR (Promega, Cat #E158A) and pGL4.35 [Luc2P/9xGAL4UAS/Hygro] (Promega, Cat #E137A) vectors. The pBind-GR vector expresses a fusion protein consisting of the GR ligand binding and the yeast Gal4DNA-binding domain, which binds to the Gal4 upstream activation sequence (UAS) in the luciferase expression vector, that can induce luciferase expression following GR agonist binding. The cells were selected for at least 2 weeks in G418+hygromycin and the resulting cell line is referred to as HEK293/GRLuc. HEK293/GRLuc cells were then transduced with a human MSR1 lentiviral expression vector and 48 hours later cells were sorted for MSR1 positive cells. The resulting cell line is referred to as HEK293/GRLuc/MSR1.
(§2) Three-fold serial dilutions of ncADCs in assay buffer were added to the cells for 48 hours. The last well in the plate served as blank control containing only the assay media and was plotted as a continuation of the 3-fold serial dilution. Luciferase activity was determined using the One-Glo™ reagent (Promega, Cat #E6130). Relative light units (RLUs) were measured on an Envision luminometer (PerkinElmer) and EC50 values were determined using a four-parameter logistic equation over a 10-point dose response curve (GraphPad Prism). The signal to noise (S/N) was determined by taking the ratio of the highest RLU on the dose response curve to the RLU in the untreated wells.
(§3) To test the activity of GR agonist payloads disclosed herein, a cell-based GR responsive luciferase reporter assay was developed as described above.
(§4) Three-fold serial dilutions of free payloads were prepared in 100% DMSO, transferred to fresh assay media, and added to the cells for 48 hours. […] The last well in the plate served as blank control containing only the assay media and 0.2% DMSO (untreated well) and was plotted as a continuation of the 3-fold serial dilution. Luciferase activity was determined using the One-Glo™ reagent (Promega, Cat #E6130). Relative light units (RLUs) were measured on an Envision luminometer (PerkinElmer) and EC50 values were determined using a four-parameter logistic equation over a 10-point dose response curve (GraphPad Prism). The signal to noise (S/N) was determined by taking the ratio of the highest RLU on the dose response curve to the RLU in the untreated wells.

GR [2] = biological target: T1, GR; assay: GR luciferase reporter assay in HEK293/GRLuc/MSR1 cells; format: cell-based; settings: Table 8b, free payloads; for S/N: HEK293/GRLuc/MSR1; for EC50: HEK293/GRLuc/MSR1, 48 hours
Method: as §1, §2, §3, §4

[3] = Metabolic stability with human liver microsomes; format: in vitro ADME; settings: for Percent Remaining (%): Mean; for CLint scaled / half-life: human
Method: The metabolic stability of payload PIII-1 incubated with human liver microsomes was evaluated and the results were shown in the Table 7e below.

[4] = biological target: T2, human macrophage scavenger receptor 1 …; assay: cell-based or functional assay
[5] = Lysosomal cleavage assay (payload release); format: in vitro ADME, human; settings: 0 hours, 1 μM payload-equivalent ncADC, 37° C.; for Released Payload Precursor Concentration: precursor PIII-1 released; for Released Payload Concentration: steroid III released
Method: To confirm the release of payloads linked to antibodies via hemiaminal ether linkers, a lysosomal cleavage assay was performed. […] 200 μL of resulting mixture with 1 μM payload-equivalent ncADC was incubated at 37° C. with gentle shaking over a 24-hour period. A 20 μL aliquot was taken at 0, 0.5, 1.0, 2.0, 4.0, 8.0 and 24 hours and immediately transferred to a plate containing 80 μL cold acetonitrile to deactivate the lysosomal enzymes and precipitate the proteins. After centrifugation at 2,000 rpm for 5 minutes, aliquots of supernatant were diluted with an equal volume of water for LC-MS analysis to determine the amount of precursor and payload released from ncADC.

[6] = Table 8, ncADCs, highest RLU / RLU of untreated wells

Row | Molecule | S/N (GR [1]; Table 8b, free payloads) | EC50 (GR [1]; Table 8b, free payloads) | S/N (GR [2]) | EC50 (GR [2]) | Percent Remaining (%) ([3]; 0 min) | Percent Remaining (%) ([3]; 5 min) | Percent Remaining (%) ([3]; 15 min) | Percent Remaining (%) ([3]; 30 min) | Percent Remaining (%) ([3]; 45 min) | CLint scaled [3] | half-life [3] | EC50 (GR [1]; Table 8, ncADCs) | S/N (GR [1]; [6]) | EC50, GR luciferase reporter activity in HEK293/GRLuc/MSR1 cells [4] | S/N (highest RLU / RLU in untreated wells), HEK293/GRLuc/MSR1 cells [4] | Released Payload Precursor Concentration [5] | Released Payload Concentration [5]
1 | CCCC1O[C@@H]2C[C@H]3[C@@H]4C[C@H](F)C5=CC(=O)C=C[C@]5(C)[C@@]4(F)[C@@H](O)C[C@]3(C)[C@]2(C(=O)CO)O1 (stereo partly shown) [III] | 34.4 | 0.0197 nM | 156.7 | 0.0242 nM | 100.00% | 16.15% | 0.75% | 0.76% | 0.14% | 811 mL/min/kg | 2.14 min | – | – | – | – | – | –
2 | CCCC1O[C@@H]2C[C@H]3[C@@H]4C[C@H](F)C5=CC(=O)C=C[C@]5(C)[C@@]4(F)[C@@H](O)C[C@]3(C)[C@]2(C(=O)COCNC(=O)CN)O1 (stereo partly drawn) [PIII-1, 2-Amino-N-({2-[(1S,2S,4R,8S,9S,11S,12R,13S,19S)-12,19-difluoro-11-hydroxy-9,13-dimethyl-16-oxo-6-propyl-5,7-dioxapentacyclo[10.8.0.0^2,9.0^4,8.0^13,18]icosa-14,17-dien-8-yl]-2-oxoethoxy}methyl)acetamide] | 32.1 | 0.0465 nM | 179.3 | 0.0545 nM | 100.00% | 59.35% | 23.58% | 6.83% | 2.68% | 223 mL/min/kg | 7.8 min | – | – | – | – | – | –
3 | B1 | – | – | – | – | – | – | – | – | – | – | – | 50.6 nM | 16.4 | 97.3 pM | 143 | 0 nM | 0 nM
4 | B2 | – | – | – | – | – | – | – | – | – | – | – | 47.6 nM | 17.5 | 85.4 pM | 269 | 0 nM | 10.1 nM
